# In patent US10626081B2, “Farnesoid X receptor agonists and uses thereof” (Metacrine, Inc., priority 2015, dated 2020):
# Columns and labels:
# FXR [1] = target: T1, FXR (Homo sapiens, UniProt Q96RI1); test: In Vitro FXR Assay (TK): TK-ECRE-luc reporter in transfected CV-1 cells; type: cell-based; details: CV-1 cells transfected with hFXR, hRXR, 18 h incubation, luminescence
# T1 construct: expressed in transfected cells; host or cells: CV-1 cells
# T1 sequence (Q96RI1 1-486): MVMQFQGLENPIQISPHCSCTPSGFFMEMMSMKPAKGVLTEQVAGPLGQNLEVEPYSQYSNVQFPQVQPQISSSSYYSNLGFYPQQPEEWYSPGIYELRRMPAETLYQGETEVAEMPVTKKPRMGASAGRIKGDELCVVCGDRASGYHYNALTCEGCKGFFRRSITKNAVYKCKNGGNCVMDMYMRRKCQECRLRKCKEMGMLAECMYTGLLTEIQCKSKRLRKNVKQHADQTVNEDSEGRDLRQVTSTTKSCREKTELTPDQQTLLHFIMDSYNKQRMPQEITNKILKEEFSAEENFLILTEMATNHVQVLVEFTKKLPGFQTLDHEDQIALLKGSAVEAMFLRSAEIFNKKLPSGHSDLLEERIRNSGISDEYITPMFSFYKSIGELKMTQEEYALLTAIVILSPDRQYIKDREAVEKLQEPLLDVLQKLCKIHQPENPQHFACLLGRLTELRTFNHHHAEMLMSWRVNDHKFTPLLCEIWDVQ
# T1 sequence (P19793 1-462 partner): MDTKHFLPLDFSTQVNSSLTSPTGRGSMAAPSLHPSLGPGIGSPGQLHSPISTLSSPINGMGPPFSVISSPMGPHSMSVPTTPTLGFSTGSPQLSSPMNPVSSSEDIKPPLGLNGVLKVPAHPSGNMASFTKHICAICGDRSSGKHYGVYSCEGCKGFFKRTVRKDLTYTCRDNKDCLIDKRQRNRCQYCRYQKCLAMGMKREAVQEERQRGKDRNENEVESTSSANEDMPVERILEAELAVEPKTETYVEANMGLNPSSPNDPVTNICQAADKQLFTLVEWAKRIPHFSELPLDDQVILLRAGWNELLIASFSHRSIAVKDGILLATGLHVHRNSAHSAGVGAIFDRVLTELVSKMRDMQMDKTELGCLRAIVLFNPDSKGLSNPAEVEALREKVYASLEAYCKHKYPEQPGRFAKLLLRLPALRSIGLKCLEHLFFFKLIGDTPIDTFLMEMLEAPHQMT
# Method in brief: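 CV-1 cells in charcoal-stripped FBS medium were transiently cotransfected with hFXR, hRXR, TK-ECRE-luc and pCMX-YFP plasmids. After 18 h, compounds serially diluted in DMSO were added for 18 h at 37 °C, 5% CO2, then cells were lysed and luminescence read.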
# FXR [2] = target: T1, FXR; test: In Vitro FXR Assay (PGL3): luciferase reporter in transfected CV-1 cells; type: cell-based; details: CV-1 cells transfected with hFXR, hRXR, PGL3-ECRE*6-luc; 18 h incubation; luminescence
# Protocol: Example B-1: In Vitro FXR Assay (PGL3)
# CV-1 cells were seeded at a density of 2,000,000 cells in a T175 flask with DMEM+10% charcoal double-stripped FBS and incubated at 37° C. in a 5% CO2 for 18 h (O/N).
# After 18 h of incubation, the medium in the T175 flask was changed with fresh DMEM+10% charcoal super-stripped serum.
# To prepare the transfection reaction mixture, the transfection reagent (X-tremeGENE HP from Roche, Cat #06 366 236 001) was added in to a 1.5 mL microcentrifuge tube labelled “A” at a ratio of 1:3 (DNA in transfection reagent in μL). OptiMEM medium (Life Technologies, Cat #31985-062) was added accordingly to provide a total volume of 1 mL. The transfection reaction mixture was then briefly vortexed and incubated at room temperature for 5 minutes.
# In a separate 1.5 mL microcentrifuge tube labelled “B”, 100 μL OptiMEM and plasmids XPD90Gal pCMXhFXRfl, pCMXhRXRfl+PGL3-ECRE*6-luc+CMX-YFP in the ratio 2 μg:2 μg:18 μg:3 μg were added. This microcentrifuge tube “B” was then briefly vortexed and incubated at room temperature for 5 minutes.
# The total volume in tube labelled “A” was then transferred in to tube labelled “B.” The mixture was then briefly vortexed and the transfection:DNA complex was then incubated for about 15-20 minutes at room temperature.
# Following incubation, the transfection reagent/DNA mixture complex was then added to cells in the T175 flask and the cells were incubated at […] (O/N) at 37° C. in 5% CO2.
# In a 96 well plate, a half logarithmic serial dilution was prepared. OptiMEM was used as the diluent. Using any of one of the compounds described herein, a compound stock solution of 10 mM was prepared. An initial 1:100 dilution was made into the first well for a final concentration of 100 μM. The final concentrations in the 96-well plate was prepared by using a multichannel pipette to transfer 5 μL of the diluted compound to 384-well plate in quadruplicate.
# Cells in T175 flask were trypsinized and cells were resuspended in 40 mL phenol red free DMEM+10% charcoal super-stripped FBS. Typically, one T175 flask was sufficient to seed two 384 well plates. CV-1 cells were seeded at 45 μL cell suspension/well using a multi-channel pipet or a 384 multidrop dispenser. The cells were then incubated for 18 hrs, overnight.
# After removing the plates from the incubator, the medium was flicked out of plate and 384 well plate was turned upside down onto paper towel. The remaining medium was gently tapped out. 15 μL lysis buffer was then added to each well using a multichannel pipet or a 384 well multi-drop dispenser. After incubation for 10 minutes at room temperature on shaker, 30 μL Luciferase buffer was added to each well. Luminescence counts were taken immediately using the Perkin Elmer Envision.
# The ability of the compounds disclosed herein to […] FXR activity was quantified and the respective EC50 value was determined. Fex=fexaramine.
Structure (SMILES),EC50 (FXR [1]) [µM],Cmpd/Fex (ratio of the EC50 for the test compound relative to the EC50 of the Fexaramine control) (FXR [2])
"COC(=O)/C=C/c1cccc(N(Cc2ccc(-c3ccccc3F)cc2)C(=O)C2CCCCC2)c1 [compound 27, (E)-Methyl 3-(3-(N-((2′-fluoro-[1,1′-biphenyl]-4-yl)methyl)cyclohexanecarboxamido)phenyl) acrylate]",1 to 10,+++ (‘+++’ means Cmpd/Fex < 10)
"COC(=O)/C=C/c1cccc(N(Cc2ccc(-c3cnn(C)c3)cc2)C(=O)C2CCCCC2)c1 [compound 28, (E)-Methyl 3-(3-(N-(4-(1-methyl-1H-pyrazol-4-yl)benzyl)cyclohexanecarboxamido)phenyl)acrylate]",1 to 10,++ (‘++’ means Cmpd/Fex > 10 & < 100)
"COC(=O)/C=C/c1cccc(N(Cc2ccc(-c3cccnc3)cc2)C(=O)C2CCCCC2)c1 [compound 29, (E)-Methyl 3-(3-(N-(4-(pyridin-3-yl)benzyl)cyclohexanecarboxamido)phenyl) acrylate]",1 to 10,++ (‘++’ means Cmpd/Fex > 10 & < 100)
"COC(=O)/C=C/c1cccc(N(Cc2ccc(-c3cccc(OC(F)(F)F)c3)cc2)C(=O)C2CCCCC2)c1 [compound 30, (E)-Methyl 3-(3-(N-((3′-(trifluoromethoxy)-[1,1′-biphenyl]-4-yl)methyl)cyclohexanecarboxamido)phenyl)acrylate]",1 to 10,+ (‘+’ means Cmpd/Fex > 100)
"COC(=O)/C=C/c1cccc(N(Cc2ccc(-c3c(C)noc3C)cc2)C(=O)C2CCCCC2)c1 [compound 31, (E)-Methyl 3-(3-(N-(4-(3,5-dimethylisoxazol-4-yl)benzyl)cyclohexanecarboxamido)phenyl)acrylate]",1 to 10,+ (‘+’ means Cmpd/Fex > 100)
"COC(=O)/C=C/c1cccc(N(Cc2ccc(-c3ccc(OC)cc3F)cc2)C(=O)C2CCCCC2)c1 [compound 33, (E)-Methyl 3-(3-(N-((2′-fluoro-4′-methoxy-[1,1′-biphenyl]-4-yl)methyl)cyclohexanecarboxamido)phenyl)acrylate]",1 to 10,++ (‘++’ means Cmpd/Fex > 10 & < 100)
"COC(=O)/C=C/c1cccc(N(Cc2ccc(-c3cccc(C(F)(F)F)c3)cc2)C(=O)C2CCCCC2)c1 [compound 35, (E)-Methyl 3-(3-(N-((3′-(trifluoromethyl)-[1,1′-biphenyl]-4-yl)methyl)cyclohexanecarboxamido)phenyl)acrylate]",1 to 10,++ (‘++’ means Cmpd/Fex > 10 & < 100)

# Second part, the compound after the results:
EC50 (FXR [1]) [µM],Cmpd/Fex (ratio of the EC50 for the test compound relative to the EC50 of the Fexaramine control) (FXR [2]),Structure (SMILES)
≤ 1,+++ (‘+++’ means Cmpd/Fex < 10),"COC(=O)/C=C/c1cccc(N(Cc2ccc(-c3ccc(N(C)C)cc3)cc2)C(=O)[C@H]2CC[C@H](O)CC2)c1 [compound 19, trans-(E)-Methyl 3-(3-(N-((4′-(dimethylamino)-[1,1′-biphenyl]-4-yl)methyl)-4-hydroxycyclohexanecarboxamido)phenyl)acrylate]"
≤ 1,+++ (‘+++’ means Cmpd/Fex < 10),"COC(=O)/C=C/c1cccc(N(Cc2ccc(-c3ccc(N(C)C)c(C)c3)cc2)C(=O)C2CCCCC2)c1 [compound 20, (E)-Methyl 3-(3-(N-((4′-(dimethylamino)-3′-methyl-[1,1′-biphenyl]-4-yl)methyl)cyclohexanecarboxamido)phenyl)acrylate]"
1 to 10,+++ (‘+++’ means Cmpd/Fex < 10),"COC(=O)/C=C/c1cccc(N(Cc2ccc(-c3ccccc3C)cc2)C(=O)C2CCCCC2)c1 [compound 21, (E)-Methyl 3-(3-(N-((2′-methyl-[1,1′-biphenyl]-4-yl)methyl)cyclohexanecarboxamido)phenyl)acrylate]"
1 to 10,+ (‘+’ means Cmpd/Fex > 100),"COC(=O)/C=C/c1cccc(N(Cc2ccc(-c3ccncc3)cc2)C(=O)C2CCCCC2)c1 [compound 22, (E)-Methyl 3-(3-(N-(4-(pyridin-4-yl)benzyl)cyclohexanecarboxamido)phenyl) acrylate]"
1 to 10,+++ (‘+++’ means Cmpd/Fex < 10),"COC(=O)/C=C/c1cccc(N(Cc2ccc(-c3ccc(C#N)cc3)cc2)C(=O)C2CCCCC2)c1 [compound 23, (E)-Methyl 3-(3-(N-((4′-cyano-[1,1′-biphenyl]-4-yl)methyl)cyclohexanecarboxamido)phenyl)acrylate]"
≤ 1,+++ (‘+++’ means Cmpd/Fex < 10),"COC(=O)/C=C/c1cccc(N(Cc2ccc(-c3cccc(C#N)c3)cc2)C(=O)C2CCCCC2)c1 [compound 24, (E)-Methyl 3-(3-(N-((3′-cyano-[1,1′-biphenyl]-4-yl)methyl)cyclohexanecarboxamido)phenyl)acrylate]"
1 to 10,++ (‘++’ means Cmpd/Fex > 10 & < 100),"COC(=O)/C=C/c1cccc(N(Cc2ccc(-c3ccc(F)cc3)cc2)C(=O)C2CCCCC2)c1 [compound 25, (E)-Methyl 3-(3-(N-((4′-fluoro-[1,1′-biphenyl]-4-yl)methyl)cyclohexanecarboxamido)phenyl)acrylate]"
1 to 10,+++ (‘+++’ means Cmpd/Fex < 10),"COC(=O)/C=C/c1cccc(N(Cc2ccc(-c3cccc(F)c3)cc2)C(=O)C2CCCCC2)c1 [compound 26, (E)-Methyl 3-(3-(N-((3′-fluoro-[1,1′-biphenyl]-4-yl)methyl)cyclohexanecarboxamido)phenyl)acrylate]"
1 to 10,++ (‘++’ means Cmpd/Fex > 10 & < 100),"COC(=O)/C=C/c1cccc(N(Cc2ccc(-c3ccc(OC(C)C)cc3)cc2)C(=O)C2CCCCC2)c1 [compound 32, (E)-Methyl 3-(3-(N-((4′-isopropoxy-[1,1′-biphenyl]-4-yl)methyl)cyclohexanecarboxamido)phenyl)acrylate]"
1 to 10,+++ (‘+++’ means Cmpd/Fex < 10),"COC(=O)/C=C/c1cccc(N(Cc2ccc(-c3ccc(Cl)cc3)cc2)C(=O)C2CCCCC2)c1 [compound 34, (E)-Methyl 3-(3-(N-((4′-chloro-[1,1′-biphenyl]-4-yl)methyl)cyclohexanecarboxamido)phenyl)acrylate]"
